Results as given in PMC3740683, “ML212: A small-molecule probe for investigating fluconazole resistance mechanisms in Candida albicans” (Beilstein Journal of Organic Chemistry, 2013).

Key:
C. albicans CaCi-8 = experiment: Secondary assay 1: CaCi-8 with 8 µg/mL fluconazole (Alamar Blue growth); format: cell-based, Candida albicans; conditions: Candida albicans, CACI8, 48 h, read-out: CaCi-8 IC50
Protocol: All of the compounds prepared above were evaluated for their ability to chemosensitize the C. albicans test strains CaCi-2 and CaCi-8 towards fluconazole. […] The DMSO/fluconazole combination served as an internal control. […]
(1/OD measured) × (desired final volume of inoculum) × 0.3 = volume of fungal culture (µL) to add to desired volume of growth medium. When added to media in wells, this yields a calculated starting OD of the fungal inoculum of 0.00015. […]
3) Use a Thermo Combi nL to dispense 20 µL/well of assay media into all wells. […]
EnVision (Perkin Elmer) plate reader setup: Ex 544 nm, Em 590 nm, bandwidth 12 nm, top read.
Secondary assay 1: CaCi-8 with 8 µg/mL fluconazole […]
35808016); geldanamycin (AG Scientific Catalog no. […]
PBS w/o calcium and magnesium (Cellgro Catalog no. 21-040-CV)
(§1) Synthetic defined growth medium
(§2) RPMI 1640 medium, (powder without sodium bicarbonate; Invitrogen Catalog no. […]
no. 028K0760); glucose 40% (w/v) in water (Sigma Catalog no. G-5400); MOPS buffer […]
1) Prepare 1× RPMI medium by dissolving 10.4 g powdered medium in 800 mL […]
(§3) 2) Add 34.52 g MOPS. While stirring, adjust pH to 7.0 with 10 N NaOH.
(§4) 3) Add 10 mL uridine solution, 50 mL glucose solution, adjust final volume to 1000 […]
Test strain: C. albicans CaCi-8
1) Inoculate 500 µL of strain from cryopreserved stock into a 250 mL shaker flask containing 30 mL growth medium. Shake at 30 °C overnight (16 hours).
2) Read OD 600 of 1 mL of fungal culture in a cuvette using a standard optical density reader (Eppendorf BioPhotometer Plus), with growth medium as a […]
3) Dilute to a desired volume of fungal inoculum according to following formula: […]
1) Add fluconazole stock solution to fungal inoculum to achieve 8 µg/mL.
2) Add Pen/Strep to media to 1% concentration.
4) Dispense geldanamycin in positive control wells using Thermo Combi nL for a final concentration of 3 µM.
5) Then, pin 100 nL of test compound from compound plates into assay plates using a CyBi-Well pin tool.
6) Dispense 20 µL/well of culture into the assay media in all wells.
7) Incubate the plates in a humidified (90% humidity) Liconic incubator at 37 °C without agitation for 48 hours.
8) Dilute Alamar Blue 1:40 in Ca/Mg-free PBS.
9) To all plates, add 5 µL/well of the diluted Alamar Blue to plates to a final dilution […]
10) Incubate the plates for 2 hours. […]

C. albicans CaCi-2 = experiment: Primary screen and dose-response retest: CaCi-2 with 8 µg/mL fluconazole (Alamar Blue growth); format: cell-based, Candida albicans; conditions: Candida albicans, CACI2; 37 °C, 48 hours, with test compound and 8 µg/mL (26 µM) fluconazole; average of at least three independent experiments in duplicate; inactive = negligible activity at concentrations below 26 µM
Protocol: All of the compounds prepared above were evaluated for their ability to chemosensitize the C. albicans test strains CaCi-2 and CaCi-8 towards fluconazole. […] The DMSO/fluconazole combination served as an internal control.
Protocols for cellular assays
Primary screen and dose-response retest: CaCi-2 with 8 µg/mL fluconazole […]
Clear, flat-bottom, black, 384-well plates (Corning Catalog no. 3712BC; Lot no. […]
DMSO; Fluconazole (Sequoia Research Products Ltd) 2 mg/mL stock solution in PBS; […]
(AG Scientific Catalog no. DAL 1100; Lot no.151016SA); PBS without calcium and magnesium (Cellgro Catalog no. 21-040-CV)
as §1, §2
no. 028KO760); Glucose 40% (w/v) in water (Sigma Catalog no. G-5400); MOPS buffer […]
1) Prepare 1× RPMI medium by dissolving 10.4 grams powdered medium in 800 […]
as §3, §4
Test Strain: C. albicans CaCi-2
1) Inoculate 500 µL of strain from cryopreserved stock into a 250 mL shaker flask containing 30 mL growth medium. Shake at 30 °C overnight.
2) Read OD 600 of 1 mL fungal culture in a cuvette using a standard optical density reader (Eppendorf BioPhotometer Plus), with growth medium as a background […]
3) Dilute to desired volume of fungal inoculums according to the following formula:
(1/OD measured) × (desired final volume of inoculum) × 0.3 = volume of fungal culture (µL) to add to desired volume of growth medium. When added to media in wells, this yields a calculated starting OD of the fungal inoculum of 0.00015.
1) Add fluconazole stock solution to fungal inoculum to achieve a final concentration […]
2) Add Pen/Strep at 0.1 mL per 10 mL media (1% v/v).
3) Use a Thermo Combi nL to dispense 20 µL/well of assay media into all wells.
4) Pin 25 nL test compound from compound plates into assay plates using CyBi- […]
5) Dispense 20 µL/well of culture into the assay media in all wells.
6) Incubate plates in a humidified (90% humidity) Liconic incubator at 37 °C without […]
7) Dilute Alamar Blue Reagent 1:40 in Ca/Mg-free PBS.
8) To all plates, add 5 µL/well of the diluted Alamar to a final dilution factor of 1:200.
9) Incubate the plates for an additional 2 hours.
10) Read the relative fluorescence intensity (RFU) of wells on a standard plate reader as a measure of relative fungal growth. EnVision (Perkin Elmer) plate reader setup: Ex 544 nm, Em 590 nm, bandwidth 12 nm, top read. […]

[1] = Plasma stability, human plasma; format: in vitro ADME; conditions: 5 h incubation

With `COC(=O)Cn1nc(-c2cccc(OC)c2)c2ccccc21` [Compound 36] the IC50 (C. albicans CaCi-8) was 1500 ± 600 nM, the IC50 (C. albicans CaCi-2) was 700 ± 300 nM and the “remaining after incubation in plasma” value [1] was < 10%.
